Measurements: the supplement of paper PMC10307832

Legend:
Assay in all cases: relative viability (nuclei count vs DMSO), 5 days (fraction); higher = more cells survive
[1] = compound: O=S(=O)(c1ccccc1)N(CC(F)(F)F)c1ccc(C(O)(C(F)(F)F)C(F)(F)F)cc1 + N=C(N)NC(=N)NCCc1ccccc1 [Phenformin] (partner 250 µM)
Outline: (§1)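 Lung cancer cell lines were pin-tool dosed in 1536-well plates on the day after seeding, with either a lone drug or a fixed anchor-drug dose plus five library-drug doses (not always all listed) in √10 steps. Nuclei were counted on 4× images after 5 days. Relative viability is the ratio of treated-well to vehicle-well nuclei counts, with each value a median of duplicate plates.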

RO-3306 + Phenformin = compound: C1=CC2=C(C=CC(=C2)C=C3C(=O)NC(=NCC4=CC=CS4)S3)N=C1 [RO-3306] + N=C(N)NC(=N)NCCc1ccccc1 [Phenformin] (partner 250 µM)
Outline: as §1

Foretinib = compound: COc1cc2c(Oc3ccc(NC(=O)C4(C(=O)Nc5ccc(F)cc5)CC4)cc3F)ccnc2cc1OCCCN1CCOCC1 [Foretinib] (anchor plate); conditions: 0.25 µM
Outline: (§2)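 Lung cancer cell lines in 1536-well plates were exposed by pinning to five library-drug doses (not always all listed) √10 apart, following an overnight hold at 37 °C. MetaXpress counted Hoechst-stained nuclei from 4× images taken after 5 days without medium change. Viability is the median ratio of treated-well to vehicle-well nuclei across plates. Plates required control CV below 25% and at least one doubling.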

[2] = compound: O=S(=O)(c1ccccc1)N(CC(F)(F)F)c1ccc(C(O)(C(F)(F)F)C(F)(F)F)cc1
Outline: as §2

RO-3306 = compound: C1=CC2=C(C=CC(=C2)C=C3C(=O)NC(=NCC4=CC=CS4)S3)N=C1 [RO-3306]
Outline: as §2

Question: What does the source list for UMC-11?
Answer: relative viability ([1]; first compound 0.8 µM): 0.315; relative viability ([1]; first compound 2.53 µM): 0.295; relative viability ([1]; first compound 8 µM): 0.315; relative viability (RO-3306 + Phenformin; first compound 0.01 µM): 0.351; relative viability (RO-3306 + Phenformin; first compound 0.03162 µM): 0.291; relative viability (RO-3306 + Phenformin; first compound 0.1 µM): 0.3; relative viability (RO-3306 + Phenformin; first compound 0.3162 µM): 0.366; relative viability (RO-3306 + Phenformin; first compound 1 µM): 0.315; relative viability (Foretinib): 1.03; relative viability ([2]; 0.8 µM): 1.06; relative viability ([2]; 2.53 µM): 0.985; relative viability ([2]; 8 µM): 1.11; relative viability (RO-3306; 0.01 µM): 1.09; relative viability (RO-3306; 0.03162 µM): 0.855; relative viability (RO-3306; 0.1 µM): 0.969; relative viability (RO-3306; 0.3162 µM): 1.05; relative viability (RO-3306; 1 µM): 0.828
